From ChEMBL document CHEMBL4130359, “Indazole-based ligands for estrogen-related receptor α as potential anti-diabetic agents” (Eur J Med Chem, 2017)

Assays:
[1] = system: Rattus norvegicus; test: Toxicity in […] chronic ob/ob model assessed as serum triglyceride level at 50 mg/kg, po qd for 31 days measured on day 32 (reference value: 329 +/- 36 mg/dl); type: organism-based; conditions: in vivo, 744 h
[2] = AUC (0 to 24 hrs) in Zucker rat sub-chronic fa/fa prediabetic model at 3 mg/kg, po qd measured on day 1 post dose; type: ADME, organism-based; set-up: time < 24 hr, dose 3 mg/kg, route oral; conditions: in vivo
[3] = system: Rattus norvegicus; test: Antidiabetic activity in Zucker rat sub-chronic fa/fa prediabetic model assessed as increase in serum adiponectin level administered orally once daily for 32 days by ELISA; type: functional, organism-based
[4] = system: Rattus norvegicus; test: Effect on PPP2R5B gene expression in epididymal white adipose tissue of Zucker rat sub-chronic fa/fa prediabetic model at 10 mg/kg, po qd for 15 days by microarray analysis relative to control; type: functional
[5] = system: Rattus norvegicus; test: Effect on THEM4 gene expression in epididymal white adipose tissue of Zucker rat sub-chronic fa/fa prediabetic model at 10 mg/kg, po qd for 15 days by microarray analysis relative to control; type: functional
[6] = biological target: Retinoic acid receptor RXR-alpha (Homo sapiens, UniProt P19793); test: Antagonist activity at recombinant GST-tagged human RXRalpha LBD assessed as inhibition of 9-cis-retinoic acid-induced fluorescein-labeled coactivator peptide recruitment preincubated with enzyme followed by coactivator addition by LanthaScreen TR-FRET assay
Sequence of Retinoic acid receptor RXR-alpha (P19793 whole entry, the tested form may be a part): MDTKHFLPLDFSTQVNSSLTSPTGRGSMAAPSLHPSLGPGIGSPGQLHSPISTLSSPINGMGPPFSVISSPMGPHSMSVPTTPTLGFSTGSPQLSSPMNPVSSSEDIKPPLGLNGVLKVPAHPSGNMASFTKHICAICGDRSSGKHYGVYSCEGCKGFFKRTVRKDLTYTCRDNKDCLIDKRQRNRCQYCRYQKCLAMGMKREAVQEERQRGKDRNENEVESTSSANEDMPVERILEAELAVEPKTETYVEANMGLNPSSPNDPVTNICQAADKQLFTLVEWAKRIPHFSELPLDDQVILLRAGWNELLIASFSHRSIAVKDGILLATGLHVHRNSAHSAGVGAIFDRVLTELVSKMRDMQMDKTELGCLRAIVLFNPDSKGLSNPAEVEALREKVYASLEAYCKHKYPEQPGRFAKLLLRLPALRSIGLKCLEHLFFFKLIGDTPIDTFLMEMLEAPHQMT

[7] = system: Rattus norvegicus; test: Toxicity in […] model assessed as serum BUN level at 3 mg/kg, po qd for 31 days measured on day 32 (reference value: 28.3 +/- […]); type: organism-based; conditions: in vivo, 744 h
[8] = system: Rattus norvegicus; test: Effect on PIAS1 gene expression in epididymal white adipose tissue of Zucker rat sub-chronic fa/fa prediabetic model at 10 mg/kg, po qd for 15 days by microarray analysis relative to control; type: functional
[9] = AUC (0 to 24 hrs) in Zucker rat sub-chronic fa/fa prediabetic model at 1 mg/kg, po qd for 26 days measured on day 26 post last dose; type: ADME, organism-based; set-up: time < 24 hr, dose 1 mg/kg, route oral; conditions: in vivo
[10] = Terminal half life in CD-1 mouse at 20 mg/kg administered via oral gavage by LC-MS analysis; type: ADME, organism-based; conditions: in vivo, read-out: beta t1/2 (converted)
[11] = system: Rattus norvegicus; test: Toxicity in Zucker rat sub-chronic fa/fa prediabetic model assessed as serum triglyceride level at 1 mg/kg, po qd for 31 days measured on day 32 (reference value: 1382 +/- 268 mg/dl); type: organism-based; conditions: in vivo, 744 h
[12] = system: Rattus norvegicus; test: Effect on PGAM2 gene expression in epididymal white adipose tissue of Zucker rat sub-chronic fa/fa prediabetic model at 10 mg/kg, po qd for 15 days by microarray analysis relative to control; type: functional
[13] = system: Rattus norvegicus; test: Effect on IGFBP6 gene expression in epididymal white adipose tissue of Zucker rat sub-chronic fa/fa prediabetic model at 10 mg/kg, po qd for 15 days by microarray analysis relative to control; type: functional
[14] = system: Rattus norvegicus; test: Effect on NFKBIB gene expression in epididymal white adipose tissue of Zucker rat sub-chronic fa/fa prediabetic model at 10 mg/kg, po qd for 15 days by microarray analysis relative to control; type: functional
[15] = Terminal half life in ob/ob mouse at 18 mg/kg administered via oral gavage by LC-MS analysis; type: ADME, organism-based; conditions: in vivo, read-out: beta t1/2 (converted)
[16] = system: Rattus norvegicus; test: Effect on HMGCS2 gene expression in epididymal white adipose tissue of Zucker rat sub-chronic fa/fa prediabetic model at 10 mg/kg, po qd for 15 days by microarray analysis relative to control; type: functional
[17] = system: Rattus norvegicus; test: Toxicity in […] chronic ob/ob model assessed as change in body weight at 50 mg/kg, po qd for 28 days measured on day 1 to 28 during compound dosing (reference value: 9.9 +/- 1.27 g); type: organism-based; conditions: in vivo, 672 h
[18] = system: Rattus norvegicus; test: Toxicity in Zucker rat sub-chronic fa/fa prediabetic model assessed as serum AST level at 3 mg/kg, po qd for 31 days measured on day 32 (reference value: 187 +/- 37 U/L); type: organism-based; conditions: in vivo, 744 h
[19] = system: Rattus norvegicus; test: Effect on ACOX1 gene expression in epididymal white adipose tissue of Zucker rat sub-chronic fa/fa prediabetic model at 10 mg/kg, po qd for 15 days by microarray analysis relative to control; type: functional

## CN1CC[C@@H](N2C(=O)S/C(=C\c3ccc4c(cnn4Cc4ccc(Cl)cc4C(F)(F)F)c3)C2=O)[C@H](F)C1
[1]
  Activity: 81 mg/dL
[2]
  AUC(0-t) at 24 h: 5980 ng·h/mL
[3]
  Activity: Dose-dependent effect
[4]
  fold change (FC): 1.276
[5]
  fold change (FC): 1.465
[6]
  IC50: > 10 µM
[7]
  Activity: 25.5 mg/dL
[8]
  fold change (FC): -1.323
[9]
  AUC at 24 h: 3200 ng·h/mL
[10]
  half-life: 10.6 h
[11]
  Activity: 1040 mg/dL
[12]
  fold change (FC): 1.396
[13]
  fold change (FC): -1.269
[14]
  fold change (FC): 1.31
[15]
  half-life: 8.1 h
[16]
  fold change (FC): -1.488
[17]
  Activity: 9.4 g
[18]
  Activity: 111 U/L
[19]
  fold change (FC): 1.495
